From patent publication US20040219512A1, “Screening methods for cataractogenic risk” (Pfizer Inc, priority 2003, published 2004)

Legend:
Rodent lens explants = system: Rodent lens explants
Protocol: Rodent lenses were surgically removed and placed in tissue culture 199 (TC199) media (Invitrogen) supplemented with bicarbonate buffer with and without 10 mM TEA (Sigma Aldrich Co.). Darkfield photomicrographs of the cells were taken over a seven day period.

SRA 01/04 cells = details: concentrations of TEA greater than five mM
Description: Preparation of Lens Epithelial Cell Line Culture Cells from the cell line, SRA 01/04 (deposited in the National Institute of Bioscience and Human-Technology Agency of Industrial Science and Technology, Ibaraki, Japan, international deposit No. FERM BP-5454) were thawed and plated on the bottom of a 25 square centimeter tissue culture flask (Falcon™ Flask, BD Biosciences, Lincoln Park, N.J.) and grown in high-glucose DMEM supplemented with 15% of FBS (Invitrogen, Grand Island, N.Y.) and 1% of penicillin/streptomysin (Invitrogen) at 37° C. in 5% CO2 and 95% air environment. The medium was changed twice a week. When confluence of 90-100% was reached (about 7-14 days), the medium was removed from the culture flask and the cells on the bottoms were washed with one ml of trypsin-EDTA (0.05% trypsin and EDTA, Invitrogen). […]
Approximately 15 μl of the cell suspension was pipetted onto a glass coverslip (Warner Instruments, Hamden, Conn., USA) placed on the transparent bottoms of a recording chamber mounted on an inverted differential interference contrast microscope (Eclipse TE300, Nikon, Tokyo, Japan). Whole cell currents were measured under the whole-cell configuration at room temperature (24-26° C.) using a multiclamp 700A dual channel multi-purpose microelectrode amplifier (Axon Instruments, Foster City, Calif., USA). […]

[1] = system: chloride channels on the lens; details: literature, Zhang, J. J. (1994); cited from earlier work

SMILES | clouding of the lens compared with control (Rodent lens explants; 10 mM TEA in TC199 media, photomicrographs over seven days) | pixel intensity histogram of lens explants (Rodent lens explants; 10 mM TEA, imaged after five days in culture) | additional current block at higher concentration (SRA 01/04 cells) | effect on chloride channels on the lens [1]
CC[N+](CC)(CC)CC [TEA, tetraethylammonium] | increased clouding of the lens | rightward shift in the intensity histogram | no significant additional current block | 
CC/C(=C(\c1ccccc1)c1ccc(OCCN(C)C)cc1)c1ccccc1 [tamoxifen] |  |  |  | blocks chloride channels on the lens
